According to article PMC12040169 (PLOS Biology, 2025):
Peptide text beside a SMILES is read from it. * marks the point of attachment. Bz = O=C(c1ccccc1)*

assay: in vitro; settings: human, hela cells, % viability

Question: Which viability at 28.5 h, 10 µM does the source give for `Cc1ccccc1CNC(=O)CN(c1cccc(C(F)(F)F)c1)S(=O)(=O)c1ccccc1` [CBK264047] here?
Answer: 102%

Question: Which viability at 28.5 h, 10 µM does the source give for `Cc1ccc(C(=O)NC(=S)Nc2cccc(NC(=O)c3ccccc3C)c2)cc1` [CBK264049] here?
Answer: 95.1%

Question: Which viability at 28.5 h, 10 µM does the source give for `COc1ccc(N(CC(=O)N2CCN(C)CC2)S(=O)(=O)c2ccc(C)c([N+](=O)[O-])c2)cc1` [CBK264051] here?
Answer: 89.8%

Question: With `CN1CCc2c(C#N)c(N)n(N)c(=S)c2C1` [CBK264055] as the compound, how does the viability at 28.5 h, 10 µM read?
Answer: 101%

Question: With `Cc1ccc(S(=O)(=O)NCCSCc2ccc(Cl)cc2)cc1[N+](=O)[O-]` [CBK264056] as the compound, how does the viability at 28.5 h, 10 µM read?
Answer: 104%

Question: For `Cn1nc(CC(=O)Nc2ccc(OC(=O)c3ccccc3)cc2)c2ccccc2c1=O` [CBK264057], which viability at 28.5 h, 10 µM is on record?
Answer: 96%

Question: For `O=C(NC(Cc1ccccc1)C(=O)N1CCCC1C(=O)O)c1ccccc1` (stereo not drawn) [CBK264058] (Bz-Phe-Pro-OH; configuration not given here), which viability at 28.5 h, 10 µM is on record?
Answer: 90.8%

Question: With `CC(Oc1ccccc1)C(=O)Nc1ccccc1-c1ccccc1` (stereo not drawn) [CBK264059] as the compound, how does the viability at 28.5 h, 10 µM read?
Answer: 111%

Question: With `CC(Oc1ccccc1)C(=O)NCCCc1ccccc1` (stereo not drawn) [CBK264060] as the compound, how does the viability at 28.5 h, 10 µM read?
Answer: 93.4%

Question: Which viability at 28.5 h, 10 µM does the source give for `O=C(COc1cccc(Br)c1)Nc1nnc[nH]1` [CBK264063] here?
Answer: 94.1%

Question: For `CC(C)(O)C#Cc1ccc(C(=O)N2CCC(C(N)=O)(N3CCCCC3)CC2)cc1` [CBK264065], which viability at 28.5 h, 10 µM is on record?
Answer: 97.3%

Question: With `Cc1cc(C)c(C)c(C(=O)COC(=O)c2cc(O)nc3ccccc23)c1C` [CBK264066] as the compound, how does the viability at 28.5 h, 10 µM read?
Answer: 94.8%

Question: Which viability at 28.5 h, 10 µM does the source give for `Cc1sc2nc(SCC(=O)c3c[nH]c4ccccc34)nc(O)c2c1C` [CBK264068] here?
Answer: 80.9%

Question: With `COc1ccc(C(=O)COC(=O)c2cc(-c3ccc(Cl)cc3)nc3ccc(C)cc23)cc1[N+](=O)[O-]` [CBK264072] as the compound, how does the viability at 28.5 h, 10 µM read?
Answer: 90.6%

Question: Which viability at 28.5 h, 10 µM does the source give for `O=S(=O)(NC1c2cccc3cccc(c23)C1Sc1ccccn1)c1ccc(Cl)cc1` (stereo not drawn) [CBK264073] here?
Answer: 95.1%

Question: With `CC(=O)OC(C(=O)O)C(OC(C)=O)c1nc2ccccc2s1` (stereo not drawn) [CBK264076] as the compound, how does the viability at 28.5 h, 10 µM read?
Answer: 99.3%

Question: Which viability at 28.5 h, 10 µM does the source give for `O=C(O)CNC(=O)CN1C(=O)c2ccccc2C1=O` [CBK264077] here?
Answer: 98.6%

Question: With `O=S(=O)(NC1c2cccc3cccc(c23)C1N1CCNCC1)c1ccc(Cl)cc1` (stereo not drawn) [CBK264082] as the compound, how does the viability at 28.5 h, 10 µM read?
Answer: 92.2%

Question: With `Cc1ccc(C(=O)COC(=O)c2cc(O)nc3ccccc23)cc1[N+](=O)[O-]` [CBK264085] as the compound, how does the viability at 28.5 h, 10 µM read?
Answer: 98.8%

Question: With `Cc1noc(NS(=O)(=O)c2ccc(NC(=O)COc3cccc(Br)c3)cc2)c1C` [CBK264086] as the compound, how does the viability at 28.5 h, 10 µM read?
Answer: 104%

Question: Which viability at 28.5 h, 10 µM does the source give for `O=S(=O)(NCC(Nc1cccc2ccccc12)c1ccccc1)c1ccc(Cl)cc1` (stereo not drawn) [CBK264087] here?
Answer: 90.3%

Question: With `O=C(/C=C/c1cccc2ccccc12)N1CCCCCC1` [CBK264092] as the compound, how does the viability at 28.5 h, 10 µM read?
Answer: 111%

Question: For `Cc1ccc(SCCNC(=O)C(C)Sc2ccc(Cl)cc2)cc1` (stereo not drawn) [CBK264104], which viability at 28.5 h, 10 µM is on record?
Answer: 93.5%

Question: For `O=C(NC(=S)Nc1ccc2oc(-c3ccncc3)nc2c1)c1ccccc1[N+](=O)[O-]` [CBK264106], which viability at 28.5 h, 10 µM is on record?
Answer: 87.3%

Question: With `Cc1cc(C)cc(N(CC(=O)Nc2ccc(C)c(Cl)c2)S(=O)(=O)c2ccccc2)c1` [CBK264109] as the compound, how does the viability at 28.5 h, 10 µM read?
Answer: 98.9%

Question: For `NC(=S)NC(=O)CN1C(=O)c2ccccc2C1=O` [CBK264111], which viability at 28.5 h, 10 µM is on record?
Answer: 90.9%

Question: With `CC(Oc1ccc(Cl)cc1Cl)C(=O)Nc1ccc(O)cc1` (stereo not drawn) [CBK264120] as the compound, how does the viability at 28.5 h, 10 µM read?
Answer: 94.8%

Question: With `COc1ccc(C)cc1NC(=O)CN(c1ccc(F)cc1)S(=O)(=O)c1ccc(C)cc1` [CBK264122] as the compound, how does the viability at 28.5 h, 10 µM read?
Answer: 101%

Question: For `Cc1ccc(S(=O)(=O)N(CC(=O)NCc2ccco2)c2cccc(C)c2)cc1` [CBK264125], which viability at 28.5 h, 10 µM is on record?
Answer: 93.9%

Question: For `Cc1ccc(S(=O)(=O)NCCSc2ccc(Cl)cc2)cc1[N+](=O)[O-]` [CBK264126], which viability at 28.5 h, 10 µM is on record?
Answer: 96.8%

Question: With `CCOc1ccc(C(=O)NC(=S)Nc2ncccc2C)cc1[N+](=O)[O-]` [CBK264128] as the compound, how does the viability at 28.5 h, 10 µM read?
Answer: 98.3%

same assay, conditions: human, hela cells, % viability, bulk resorufin, single well

Question: With `Cc1cccc(N2C(=O)/C(=C/c3ccccc3OCc3ccc(C(=O)O)cc3)C(=O)NC2=S)c1` [CBK264100] as the compound, how does the viability at 28.5 h, 10 µM read?
Answer: 95.3%

Question: Which viability at 28.5 h, 10 µM does the source give for `CCc1ccccc1N1C(=O)NC(=O)/C(=C\c2ccc(OCC(=O)O)c(Cl)c2)C1=O` [CBK264107] here?
Answer: 95.2%
